Experiments:
Gag-Pol polyprotein [1] = molecular target: T1, Gag-Pol polyprotein (Human immunodeficiency virus type 1 group M subtype B (isolate HXB2), UniProt P04585); experiment: ST Inhibitory Assay
Procedure: Insertion of two newly processed 3'-viral DNA ends into the host-cell chromosome. All biological assays were performed essentially as previously described [Dayam et al., J. Med. Chem., 51:1136-1144].

Gag-Pol polyprotein [2] = molecular target: T1, Gag-Pol polyprotein; experiment: 3'-P Inhibitory Assay
Procedure: Cleavage of a dinucleotide from each 3'-end of viral cDNA. All biological assays were performed essentially as previously described [Dayam et al., J. Med. Chem., 51:1136-1144].

Structure (SMILES)	IC50 (Gag-Pol polyprotein [1]) [µM]	IC50 (Gag-Pol polyprotein [2]) [µM]
CC(=O)Oc1cc(C(=O)Nc2ccc(S(=O)(=O)Nc3ccccc3)cc2)cc(OC(C)=O)c1OC(C)=O [N-(4-Phenylsulfamoylphenyl)-3,4,5-triacetoxybenzamide (8m)]	1.6	8
O=C(Nc1ccc(S(=O)(=O)Nc2ccccc2)cc1)c1cc(O)c(O)c(O)c1 [N-(4-Phenylsulfamoylphenyl)galloylamide (9m)]	1.5	7
O=C(Nc1ccc(S(=O)(=O)Nc2ccccc2)cc1)c1ccc(O)c(O)c1 [N-(4-phenylsulfamoylphenyl)3,4-dihydroxybenzamidebenzamide (11w)]	50	100

Reference: BindingDB's records for doi:10.3109/14756366.2011.604851 (Shandong University, 2012)
